The NIST ThermoML archive (doi:10.1016/j.jct.2015.12.001)

Assay: wn = mass fraction of the nth substance listed
Conditions: 100 kPa, Liquid, Concentric cylinders viscometry

CCN(CC)CCO [(diethylamino)ethanol] + O
viscosity [mPa·s]
Conditions	w1 = 0.3001	w1 = 0.3499	w1 = 0.4001	w1 = 0.4501	w1 = 0.4999	w1 = 0.6001
303.2 K	2.96	3.34	4.56	5.06	6.11	8.41
313.2 K	2.12	2.36	3.12	3.65	4.33	5.52
323.2 K	1.59	1.81	2.23	2.69	3.07	3.74
